In PubChem BioAssay AID179 (DTP/NCI, 2004):
The source made the active and inactive calls.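 The calls were made as follows: active = compounds giving half or more protection of infected cells from virus-caused growth loss, again on retest; inactive = the rest.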

Tested on: CEM cells HIV-1 protection, formazan growth assay
Assay: NCI AIDS Antiviral Assay
Conditions: for IC50: measured here: growth of uninfected CEM cells
Summary of the method: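 Human CEM cells, uninfected and HIV-1-infected, exposed to five drug concentrations; growth measured by soluble formazan assay and scored as percent protection from infection, with protecting compounds retested.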

Row | Structure (SMILES) | outcome | EC50 [µM] | IC50 [µM]
1 | CCC(Oc1ccc(OC)c2c1C(=O)CCC2)C(=O)O (centres undefined) | inactive | – | –
2 | CCOC(=O)/C(F)=C/c1ccc(C)cc1 | – | > 126 | > 126
3 | CC(=O)Nc1cc(S(=O)(=O)O)cc2c(N=Nc3ccc(C(=O)Nc4ccc(N=Nc5ccc(S(=O)(=O)O)cc5)cc4)cc3)c(S(=O)(=O)O)cc(O)c12 | inactive | – | –
4 | CC[C@@]12CCC(=S)N(CCSc3ccccc3)[C@@H]1c1c(n(S(=O)(=O)c3ccc(OC)cc3)c3ccccc13)CC2 | – | > 200 | > 200
5 | Oc1ccc2ccccc2c1C1=NNC(c2ccc(Cl)cc2)C1 (centres undefined) | – | > 200 | 40.7
6 | [Ni+2].[O-]/C(=N\N=C/c1ccccc1F)c1ccncc1.[O-]/C(=N\N=C\c1ccccc1F)c1ccncc1 | – | > 100 | > 100
7 | O=C1CCC2c3ccccc3NCN12 (centres undefined) | inactive | – | –
8 | Oc1ccc(Cl)cc1/C=N/Nc1nnc(N/N=C/c2cc(Cl)ccc2O)c2ccccc12 | – | > 200 | 1
9 | C/C(CC(O)(C(F)(F)Cl)C(F)(F)Cl)=N\NC(N)=S | – | > 200 | 110
10 | Cc1ccc(OCC2OC(n3cnc4c(Br)nc(Br)nc43)CC2Oc2ccc(C)cc2)cc1 (centres undefined) | – | > 200 | 2.09
11 | COc1ccccc1N1CCN(CCCNC(=O)c2cc(Cl)c(N)c(Cl)c2)CC1 | – | > 200 | 89.1
12 | NC(=S)Nc1[nH]c(=S)nc2c1c(-c1ccccc1)cn2C(=O)c1ccccc1 | – | > 25.1 | > 25.1
13 | CC(=O)NNC(=S)/N=C/C(C(=O)Nc1ccccc1)=C(/C)O | – | > 200 | > 200
14 | CC(C)OC(=O)c1cccnc1/C=N/O | – | > 1200 | 112
15 | NC(=O)NC(=NCc1ccccc1)NCc1ccccc1 | – | > 776 | 107
16 | CCCCCCCCCCCCCCCC(=O)NCC(COP(=O)([O-])OCC[N+](C)(C)C)OCC (centres undefined) | inactive | – | –
17 | O=c1oc2ccccc2c(O)c1/C=N\c1nc(-c2ccccc2)cs1 | – | > 200 | 3.39
18 | O=C(Cn1c(=O)ccc2ccccc21)Cn1c(=O)ccc2ccccc21 | – | > 200 | > 200

Row | Structure (SMILES) | outcome | EC50 [µM] | IC50 [µM]
19 | c1ccc(-c2c3c(nc4c2CC[C@H]4NC2=NCCN2)[C@@H](NC2=NCCN2)CC3)cc1 | – | > 200 | > 200
20 | Nc1nnc(CCC(=O)Nc2cc(Cl)ccc2Cl)n1N | – | > 8.71 | > 8.71
21 | CCOC(=O)CSc1nc2ccccc2c(=O)n1N | – | > 200 | > 200
22 | O=C(Cc1ccccc1)NNc1nc(NNC(=O)c2ccncc2)nc(Nc2ccccc2)n1 | – | > 200 | > 200
23 | CCc1ccccc1NC(=O)C1=C(C)NC(C)=C(C(=O)Nc2ccccc2CC)C1c1ccc(NC(C)=O)cc1 | – | > 34.7 | > 34.7
24 | COc1c(C(=O)/C(=N/Nc2ccccc2)C(C)=O)c(O)c(OC)c2occc12 | – | > 200 | 38
25 | CC(C)(C)c1cc(CCC(=O)Nc2ccc(Cl)cc2)nc(NC#N)n1 | – | > 692 | > 692
26 | Cn1c(=O)cc(CC(=O)C(=O)O)c2ccccc21 | – | > 200 | 148
27 | O=S(=O)(c1ccccc1)c1cccc2c1NCCC2 | – | 21.9 | 95.5
28 | COc1ccc(C2CC(=O)CC(c3ccc(OC)cc3)C23C(=O)NC(=S)NC3=O)cc1 (centres undefined) | – | > 100 | > 100
29 | Cc1ccc2c(c1)S(=O)(=O)NC2=O | – | > 1260 | 1230
30 | OC(CN1CCC(c2ccccc2)CC1)c1ccc(Br)cc1 (centres undefined) | – | > 18.2 | > 18.2
31 | Br/C=C(\Br)C[N+]12CN3CN(CN(C3)C1)C2 | – | > 200 | 110
32 | Cc1cc(-c2ccc(N=Nc3c(S(=O)(=O)O)cc4cccc(S(=O)(=O)O)c4c3O)c(C)c2)ccc1N=Nc1ccc2c(S(=O)(=O)O)ccc(N)c2c1O | inactive | – | –
33 | O=C(Nc1cccc(C(F)(F)F)c1)c1cc(-c2ccccc2)nc(=S)[nH]1 | – | > 661 | > 661
34 | C[Si](C)(C)/C=C/CN1C(=O)CCC1O (centres undefined) | inactive | – | –
35 | O=C(Nc1cccc(NC(=O)c2nn[nH]n2)n1)c1nn[nH]n1 | – | > 200 | > 200
